From the NIST ThermoML archive (doi:10.1021/acs.jced.5b00813)

Legend:
[1] = excess molar enthalpy (molar enthalpy of mixing); xn = mol fraction of the nth substance listed; details: 298.15 K, 100 kPa, Liquid, Calvet calorimetry
[2] = xn = mol fraction of the nth substance listed; details: 298.15 K, 100 kPa, Liquid, Vibrating tube method
[3] = 298.15 K; 100 kPa; Liquid; Vibrating tube method
[4] = refractive index (Na D-line) (dimensionless); details: 298.15 K; 101.33 kPa; Liquid; Standard Abbe refractometry

CCCC(=O)OC [methyl butanoate] + COC(C)=O
Details	excess molar enthalpy, [1] [kJ/mol]	mass density, [2] [kg/m3]
x1 = 0.0106	–	926.21
x1 = 0.027	0.022	–
x1 = 0.0564	–	923.86
x1 = 0.0962	0.053	–
x1 = 0.1023	–	921.52
x1 = 0.1361	–	919.91
x1 = 0.1645	0.083	–
x1 = 0.203	–	916.91
x1 = 0.226	0.102	–
x1 = 0.2536	–	914.74
x1 = 0.2888	0.12	–
x1 = 0.3054	–	912.64
x1 = 0.3478	0.135	–
x1 = 0.4002	0.143	–
x1 = 0.4122	–	908.65
x1 = 0.4437	0.149	–
x1 = 0.4511	–	907.3
x1 = 0.4822	0.151	–
x1 = 0.5276	0.149	–
x1 = 0.5456	–	904.19
x1 = 0.5725	0.146	–
x1 = 0.5906	–	902.8
x1 = 0.6148	–	902.08
x1 = 0.6268	0.138	–
x1 = 0.6958	0.122	899.76
x1 = 0.7394	–	898.57
x1 = 0.7669	0.1	–
x1 = 0.7873	–	897.29
x1 = 0.8368	–	896.07
x1 = 0.8497	0.069	–
x1 = 0.8884	–	894.85
x1 = 0.9313	0.036	–
x1 = 0.9538	–	893.32
x1 = 0.974	–	892.87
x1 = 1	–	892.34

COC(C)=O [methyl ethanoate]
Details	mass density [kg/m3]	refractive index
[3]	927.16	–
[4]	–	1.3588

COC(C)=O [methyl ethanoate] + CC(C)CC(C)(C)C
Details	excess molar enthalpy [kJ/mol]	mass density [kg/m3]
[1], x2 = 0.02	0.155	–
[1], x2 = 0.0525	0.414	–
[1], x2 = 0.0892	0.66	–
[1], x2 = 0.1241	0.858	–
[1], x2 = 0.1687	1.05	–
[1], x2 = 0.2084	1.22	–
[1], x2 = 0.256	1.39	–
[1], x2 = 0.3079	1.54	–
[1], x2 = 0.3608	1.66	–
[1], x2 = 0.3915	1.71	–
[1], x2 = 0.4323	1.76	–
[1], x2 = 0.4764	1.79	–
[1], x2 = 0.5406	1.76	–
[1], x2 = 0.6163	1.64	–
[1], x2 = 0.6888	1.46	–
[1], x2 = 0.7833	1.15	–
[1], x2 = 0.8597	0.792	–
[1], x2 = 0.9422	0.356	–
[2], x2 = 0	–	927.16
[2], x2 = 0.0375	–	906.89
[2], x2 = 0.1025	–	876.58
[2], x2 = 0.1652	–	851.09
[2], x2 = 0.1775	–	846.59
[2], x2 = 0.2189	–	832.07
[2], x2 = 0.2615	–	818.03
[2], x2 = 0.302	–	805.95
[2], x2 = 0.3902	–	782.41
[2], x2 = 0.4061	–	778.52
[2], x2 = 0.4249	–	774.09
[2], x2 = 0.4627	–	765.54
[2], x2 = 0.5239	–	752.92
[2], x2 = 0.5411	–	749.57
[2], x2 = 0.61	–	737.18
[2], x2 = 0.6612	–	728.76
[2], x2 = 0.6786	–	726.1
[2], x2 = 0.7359	–	717.6
[2], x2 = 0.8086	–	708.07
[2], x2 = 0.8803	–	699.86
[2], x2 = 0.9521	–	692.07
